The source of these data is patent publication US10689354B2, “Aminoazole derivative” (Teijin Pharma Limited, priority 2015, dated 2020).

The test deals with T1, androgen receptor (AR-LBD) (Rattus norvegicus, UniProt P15207).
T1 construct: 5 μL of 2×AR-LBD/Fluoromone AL Red Complex contained in the kit; purchased Invitrogen
T1 sequence (P15207 651-882 limits assumed): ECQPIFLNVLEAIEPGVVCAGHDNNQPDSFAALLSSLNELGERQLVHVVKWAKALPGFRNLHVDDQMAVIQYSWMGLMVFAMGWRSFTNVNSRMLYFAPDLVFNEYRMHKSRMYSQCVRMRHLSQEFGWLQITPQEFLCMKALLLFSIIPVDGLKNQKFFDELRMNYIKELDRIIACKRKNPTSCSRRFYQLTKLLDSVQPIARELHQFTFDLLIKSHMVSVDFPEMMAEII
Description: Evaluation of androgen receptor affinity (PolarScreen Androgen Receptor Competitor Assay Kit, Red; fluorescence polarization). The note with it: 22° C. for 5 hours, relative to binding rate of 1 μM DHT, read-out: AR affinity (pEC50) (converted). Put shortly:
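FP competition: compound + AR-LBD/Fluoromone AL Red tracer complex, 22° C, 5 h. Reference 1 μM DHT binding rate; pEC50 by 4-parameter fit.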
On the technique in general: Polarisation of emitted light reports the rotation of a fluorescent probe.

Some results are limits rather than exact numbers.

Turning to `Cc1sc(N(Cc2ccc(OCCCN3CCCC3=O)cc2)c2ccc(C#N)cc2)nc1C(=O)NS(C)(=O)=O` [Compound 578, 2-[4-cyano-N-[[4-[3-(2-oxopyrrolidin-1-yl)propoxy]phenyl]methyl]anilino]-5-methyl-N-methylsulfonyl-thiazole-4-carboxamide], the EC50 was 794 nM.

Regarding `Cc1sc(N(Cc2cccc(OCCO)c2)c2ccc(C#N)cc2)nc1C(=O)NS(C)(=O)=O` [Compound 587, 2-[4-cyano-N-[[3-(2-hydroxyethoxy)phenyl]methyl]anilino]-5-methyl-N-methylsulfonyl-thiazole-4-carboxamide], the EC50 was 501 nM. The same measure for `CS(=O)(=O)NC(=O)c1nc(N(Cc2ccccc2)c2ccc(C#N)cc2)sc1-c1ccccc1` [Compound 601, 2-(N-benzyl-4-cyano-anilino)-N-methylsulfonyl-5-phenyl-thiazole-4-carboxamide]: > 2000 nM; for `Cc1sc(N(Cc2ccccc2)c2ccc(C#N)cn2)nc1C(=O)NS(C)(=O)=O` [Compound 602, 2-[benzyl-(5-cyano-2-pyridyl)amino]-5-methyl-N-methylsulfonyl-thiazole-4-carboxamide]: 501 nM.

Take `Cc1sc(N(Cc2ccccc2)c2ccc(C#N)nc2)nc1C(=O)NS(C)(=O)=O` [Compound 604, 2-[benzyl-(6-cyano-3-pyridyl)amino]-5-methyl-N-methylsulfonyl-thiazole-4-carboxamide]: the EC50 is > 2000 nM.

On to `Cc1sc(N(Cc2ccccc2)c2cccc(CCO)c2)nc1C(=O)NS(C)(=O)=O` [Compound 605, 2-[N-benzyl-3-(2-hydroxyethyl)anilino]-5-methyl-N-methylsulfonyl-thiazole-4-carboxamide], for which the EC50 is > 2000 nM.

`Cc1sc(N(Cc2ccccc2)c2ccccc2CO)nc1C(=O)NS(C)(=O)=O` [Compound 606, 2-[N-benzyl-2-(hydroxymethyl)anilino]-5-methyl-N-methylsulfonyl-thiazole-4-carboxamide]: the EC50 was > 2000 nM.

Turning to `Cc1oc(N(Cc2ccc(C#N)cc2)c2ccc(C#N)cc2)nc1C(=O)NS(C)(=O)=O` [Compound 615, 2-[4-cyano-N-[(4-cyanophenyl)methyl]anilino]-5-methyl-N-methylsulfonyl-oxazole-4-carboxamide], the EC50 is 398 nM. In the case of `Cc1nc(CN(c2ccc(C#N)cc2)c2nc(C(=O)NS(C)(=O)=O)c(C)o2)cs1` [Compound 619, 2-[4-cyano-N-[(2-methylthiazol-4-yl)methyl]anilino]-5-methyl-N-methylsulfonyl-oxazole-4-carboxamide], the EC50 was > 2000 nM.

In the case of `Cc1sc(N(c2ccc(C#N)cc2F)[C@@H](CO)c2ccccc2)nc1C(=O)NS(C)(=O)=O` [Compound 667, 2-(4-cyano-2-fluoro-N-[(1R)-2-hydroxy-1-phenyl-ethyl]anilino)-5-methyl-N-methylsulfonyl-thiazole-4-carboxamide], the EC50 was > 2000 nM. As to `Cc1sc(N(Cc2ccccc2)CC2CCCCC2)nc1C(=O)NS(C)(=O)=O` [Compound 668, 2-[benzyl(cyclohexylmethyl)amino]-5-methyl-N-methylsulfonyl-thiazole-4-carboxamide], the EC50 was > 2000 nM. Regarding `Cc1sc(N(Cc2ccccc2)C2CCCC2)nc1C(=O)NS(C)(=O)=O` [Compound 669, 2-[benzyl(cyclopentyl)amino]-5-methyl-N-methylsulfonyl-thiazole-4-carboxamide], the EC50 is 631 nM.

Regarding `Cc1sc(N(Cc2ccccc2)C2CCCCC2)nc1C(=O)NS(C)(=O)=O` [Compound 670, 2-[benzyl(cyclohexyl)amino]-5-methyl-N-methylsulfonyl-thiazole-4-carboxamide], the EC50 was > 2000 nM. Turning to `Cc1sc(N(Cc2ccccc2)C(C)Cc2ccccc2)nc1C(=O)NS(C)(=O)=O` (stereo not shown) [Compound 674, 2-[benzyl-(1-methyl-2-phenyl-ethyl)amino]-5-methyl-N-methylsulfonyl-thiazole-4-carboxamide], the EC50 is > 2000 nM. `Cc1sc(N(Cc2ccccc2)Cc2csc3cc(C#N)ccc23)nc1C(=O)NS(C)(=O)=O` [Compound 675, 2-[benzyl-[(6-cyanobenzothiophen-3-yl)methyl]amino]-5-methyl-N-methylsulfonyl-thiazole-4-carboxamide]: the EC50 is > 2000 nM. As for `Cc1sc(N(Cc2ccccc2)Cc2csc3cc(C(F)(F)F)ccc23)nc1C(=O)NS(C)(=O)=O` [Compound 676, 2-[benzyl-[[6-(trifluoromethyl)benzothiophen-3-yl]methyl]amino]-5-methyl-N-methylsulfonyl-thiazole-4-carboxamide], the EC50 was > 2000 nM. The same measure for `Cc1sc(N(CCn2nccn2)Cc2ccccc2)nc1C(=O)NS(C)(=O)=O` [Compound 679, 2-[benzyl-[2-(triazol-2-yl)ethyl]amino]-5-methyl-N-methylsulfonyl-thiazole-4-carboxamide]: > 2000 nM; for `Cc1sc(N(CCn2cncn2)Cc2ccccc2)nc1C(=O)NS(C)(=O)=O` [Compound 680, 2-[benzyl-[2-(1,2,4-triazol-1-yl)ethyl]amino]-5-methyl-N-methylsulfonyl-thiazole-4-carboxamide]: > 2000 nM. In the case of `Cc1ccn(CCN(Cc2ccccc2)c2nc(C(=O)NS(C)(=O)=O)c(C)s2)n1` [Compound 681, 2-[benzyl-[2-(3-methylpyrazol-1-yl)ethyl]amino]-5-methyl-N-methylsulfonyl-thiazole-4-carboxamide], the EC50 is > 2000 nM. Consider `Cc1sc(N(CCn2nccc2C)Cc2ccccc2)nc1C(=O)NS(C)(=O)=O` [Compound 682, 2-[benzyl-[2-(5-methylpyrazol-1-yl)ethyl]amino]-5-methyl-N-methylsulfonyl-thiazole-4-carboxamide], for which the EC50 was > 2000 nM.

`Cc1sc(N(CCC(C)(C)C)Cc2ccccc2)nc1C(=O)NS(C)(=O)=O` [Compound 686, 2-[benzyl(3,3-dimethylbutyl)amino]-5-methyl-N-methylsulfonyl-thiazole-4-carboxamide]: the EC50 is > 2000 nM. For the compound `Cc1sc(N(CCC2CC2)Cc2ccccc2)nc1C(=O)NS(C)(=O)=O` [Compound 687, 2-[benzyl(2-cyclopropylethyl)amino]-5-methyl-N-methylsulfonyl-thiazole-4-carboxamide], the EC50 is > 2000 nM.

As for `Cc1sc(N(CCn2cccn2)Cc2ccccc2)nc1C(=O)NS(C)(=O)=O` [Compound 688, 2-[benzyl(2-pyrazol-1-ylethyl)amino]-5-methyl-N-methylsulfonyl-thiazole-4-carboxamide], the EC50 is > 2000 nM. In the case of `Cc1cc(C)n(CCN(Cc2ccccc2)c2nc(C(=O)NS(C)(=O)=O)c(C)s2)n1` [Compound 689, 2-[benzyl-[2-(3,5-dimethylpyrazol-1-yl)ethyl]amino]-5-methyl-N-methylsulfonyl-thiazole-4-carboxamide], the EC50 is > 2000 nM. The value for `Cc1sc(N(CCc2ccc3nccnc3c2)Cc2ccccc2)nc1C(=O)NS(C)(=O)=O` [Compound 690, 2-[benzyl(2-quinoxalin-6-ylethyl)amino]-5-methyl-N-methylsulfonyl-thiazole-4-carboxamide] was 1000 nM; that for `Cc1noc(C)c1CCN(Cc1ccccc1)c1nc(C(=O)NS(C)(=O)=O)c(C)s1` [Compound 691, 2-[benzyl-[2-(3,5-dimethylisoxazol-4-yl)ethyl]amino]-5-methyl-N-methylsulfonyl-thiazole-4-carboxamide] was > 2000 nM. Take `CCS(=O)(=O)NC(=O)c1nc(N(CCc2ccc(Cl)cc2)CC2CCCCC2)sc1C` [Compound 698, 2-[2-(4-chlorophenyl)ethyl-(cyclohexylmethyl)amino]-N-ethylsulfonyl-5-methyl-thiazole-4-carboxamide]: the EC50 was 794 nM. With `Cc1sc(N(CCc2ccc(Cl)cc2)CC2CCCCC2)nc1C(=O)NS(=O)(=O)C(F)(F)F` [Compound 700, 2-[2-(4-chlorophenyl)ethyl-(cyclohexylmethyl)amino]-5-methyl-N-(trifluoromethylsulfonyl)thiazole-4-carboxamide], the EC50 was > 2000 nM. Turning to `Cc1sc(N(CCC2CCNCC2)Cc2ccccc2)nc1C(=O)NS(C)(=O)=O` [Compound 705, 2-[benzyl-[2-(4-piperidyl)ethyl]amino]-5-methyl-N-methylsulfonyl-thiazole-4-carboxamide], the EC50 was > 2000 nM. `Cc1nc(CCN(Cc2ccccc2)c2nc(C(=O)NS(C)(=O)=O)c(C)s2)cs1` [Compound 706, 2-[benzyl-[2-(2-methylthiazol-4-yl)ethyl]amino]-5-methyl-N-methylsulfonyl-thiazole-4-carboxamide]: the EC50 was > 2000 nM.

In the case of `Cc1sc(N(CCc2coc3ccccc23)Cc2ccccc2)nc1C(=O)NS(C)(=O)=O` [Compound 707, 2-[2-(benzofuran-3-yl)ethyl-benzyl-amino]-5-methyl-N-methylsulfonyl-thiazole-4-carboxamide], the EC50 is > 2000 nM. Consider `Cc1sc(N(CCC(F)(F)F)Cc2ccccc2)nc1C(=O)NS(C)(=O)=O` [Compound 711, 2-[benzyl(3,3,3-trifluoropropyl)amino]-5-methyl-N-methylsulfonyl-thiazole-4-carboxamide], for which the EC50 was > 2000 nM. For the compound `Cc1sc(N(CCC(O)CO)Cc2ccccc2)nc1C(=O)NS(C)(=O)=O` (stereo not shown) [Compound 712, 2-[benzyl(3,4-dihydroxybutyl)amino]-5-methyl-N-methylsulfonyl-thiazole-4-carboxamide], the EC50 was > 2000 nM.

Take `Cc1sc(N(CCc2ccc(C#N)cc2)CC2CCCCC2)nc1C(=O)NS(=O)(=O)C1CC1` [Compound 718, 2-[2-(4-cyanophenyl)ethyl-(cyclohexylmethyl)amino]-N-cyclopropylsulfonyl-5-methyl-thiazole-4-carboxamide]: the EC50 was > 2000 nM.
